From patent US9856256B2, “Pyridino[1,2-A]pyrimidone analogue used as P13K inhibitor” (CHIA TAI TIANQING PHARMACEUTICAL GROUP CO., LTD., priority 2014, dated 2018)
pIC50: −log10 of the molar value.

Columns and labels:
PI3K (p110α) [1] = biological target: T1, PI3K (p110α) (Homo sapiens, UniProt P42336); assay: In vitro enzyme activity assay, PI3K (p110α) kinase, Method I (HTRF); assay type: biochemical; set-up: recombinant full-length human PI3K p110α subunit; His-tag (N); host or cells: insect cells; conditions: 10 μM PI(4,5)P2 and 10 μM ATP), read-out: PI3K (p110α) enzyme activity_IC50
T1 sequence (P42336 whole entry): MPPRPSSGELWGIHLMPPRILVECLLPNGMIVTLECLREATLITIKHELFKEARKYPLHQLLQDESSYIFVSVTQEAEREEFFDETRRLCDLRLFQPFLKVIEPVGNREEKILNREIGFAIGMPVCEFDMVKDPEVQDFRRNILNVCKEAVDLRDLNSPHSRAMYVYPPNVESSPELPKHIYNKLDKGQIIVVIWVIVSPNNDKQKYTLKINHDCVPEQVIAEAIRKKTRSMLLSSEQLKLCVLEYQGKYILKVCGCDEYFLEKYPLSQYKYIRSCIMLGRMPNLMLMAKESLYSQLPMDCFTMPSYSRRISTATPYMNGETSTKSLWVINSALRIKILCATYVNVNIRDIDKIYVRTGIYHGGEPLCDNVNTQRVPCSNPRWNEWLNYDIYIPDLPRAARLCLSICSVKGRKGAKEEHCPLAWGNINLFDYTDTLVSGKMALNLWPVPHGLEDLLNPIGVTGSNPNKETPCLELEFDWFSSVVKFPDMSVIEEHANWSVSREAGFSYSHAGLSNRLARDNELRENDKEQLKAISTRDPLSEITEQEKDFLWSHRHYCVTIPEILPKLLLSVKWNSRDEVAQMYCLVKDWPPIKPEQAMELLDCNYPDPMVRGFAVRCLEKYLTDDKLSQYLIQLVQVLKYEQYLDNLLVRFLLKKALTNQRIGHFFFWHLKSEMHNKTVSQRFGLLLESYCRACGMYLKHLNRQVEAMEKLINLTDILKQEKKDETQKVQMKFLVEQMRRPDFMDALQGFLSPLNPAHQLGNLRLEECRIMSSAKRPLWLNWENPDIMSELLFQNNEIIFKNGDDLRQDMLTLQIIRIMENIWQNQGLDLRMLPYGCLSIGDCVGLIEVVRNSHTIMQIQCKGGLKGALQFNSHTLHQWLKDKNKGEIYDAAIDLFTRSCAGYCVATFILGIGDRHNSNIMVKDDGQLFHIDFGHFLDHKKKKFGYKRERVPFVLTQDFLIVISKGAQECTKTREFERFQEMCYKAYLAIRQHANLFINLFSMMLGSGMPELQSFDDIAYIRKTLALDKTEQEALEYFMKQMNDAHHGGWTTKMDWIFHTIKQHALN
T1 sequence (P27986 whole entry partner): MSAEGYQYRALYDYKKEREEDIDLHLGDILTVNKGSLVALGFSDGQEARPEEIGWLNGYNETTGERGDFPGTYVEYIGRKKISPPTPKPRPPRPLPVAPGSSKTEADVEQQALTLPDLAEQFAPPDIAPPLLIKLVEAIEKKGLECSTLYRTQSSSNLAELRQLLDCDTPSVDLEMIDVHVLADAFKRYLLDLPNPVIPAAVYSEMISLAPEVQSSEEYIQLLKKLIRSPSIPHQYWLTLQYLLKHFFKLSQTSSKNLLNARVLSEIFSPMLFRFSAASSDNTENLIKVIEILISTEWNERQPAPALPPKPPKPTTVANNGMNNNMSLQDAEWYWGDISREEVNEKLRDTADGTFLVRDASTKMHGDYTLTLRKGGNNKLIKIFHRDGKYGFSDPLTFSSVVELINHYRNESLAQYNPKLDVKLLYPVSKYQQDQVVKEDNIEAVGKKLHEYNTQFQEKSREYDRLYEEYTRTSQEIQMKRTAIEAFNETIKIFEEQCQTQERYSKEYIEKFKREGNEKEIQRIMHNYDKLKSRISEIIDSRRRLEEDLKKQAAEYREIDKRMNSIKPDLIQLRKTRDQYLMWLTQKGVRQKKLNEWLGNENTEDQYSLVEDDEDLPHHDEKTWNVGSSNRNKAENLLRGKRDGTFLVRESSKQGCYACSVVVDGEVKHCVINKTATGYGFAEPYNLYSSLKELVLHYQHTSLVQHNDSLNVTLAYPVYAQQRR
Procedure: (§1) PI3K (p110α) kinase activities of the compounds in all the examples of the present invention were tested via the following two methods, respectively.
Reaction buffer: HEPES 50 mM (pH7.0), NaN3 0.02%, BSA 0.01%. Orthovanadate 0.1 mM, and 1% DMSO.
Detection buffer: HEPES 10 mM (pH7.0), BSA 0.02%, KF 0.16 M, and EDTA 4 mM.
Enzymes for reaction: recombinant full-length human PI3K p110α subunit (molecular weight=128.4 kDa) with a His-tag at the N-terminus and unlabeled p85α subunit (molecular weight=83.6 kDa), which were expressed in insect cells.
Substrate for reaction: […] PIP2 substrate (PI(4,5)P2).
Reaction conditions: 10 μM PI(4,5)P2 and 10 μM ATP.
1. preparing the substrate in the freshly prepared reaction buffer;
(§2) 2. adding the kinase into the substrate reaction solution, and mixing gently;
3. transferring the compound dissolved in 100% DMSO into the kinase reaction solution by using Acoustic technique (Echo550; nanoliter rang), and incubating at room temperature for 10 minutes;
4. adding an appropriate concentration of ATP into the reaction system,
5. incubating at 30° C. for half an hour;
6. terminating the reaction by adding a stop solution;
7. adding the detection buffer and incubating overnight; and
8. detecting by using homogeneous time-resolved fluorescence (HTRF) method (excitation wavelength of 320 nm, measuring the ratio of the emission wavelength readings at 615 nm and 665 nm).

MCF-7 cells = assay: In vitro cell activity assay (MCF-7, insulin stimulation, ELISA-One); assay type: cell-based; conditions: Homo sapiens, MCF7, compound 2 hours in serum-free media, then 10 μg/ml insulin 30 min
Procedure: Experimental Steps and Method Comprise:
1. MCF-7 cells were seeded at 2,5000 cells per well in a 96 well tissue culture plate in a complete media containing 10%0/FBS.
3. The cells were treated with 10 μg/ml insulin in serum-free media for 30 min.
4. During waiting period, lysis solution was prepared as below:
a) Enhancer Solution needs to be taken out from the refrigerator to be thawed.
b) Concentrated lysis solution was prepared by diluting Enhancer Solution 10-fold in 5× Lysis Buffer.
c) Lysis solution was prepared by diluting concentrated lysis solution 5-fold with ddH2O.
5. Any media were removed from wells and the wells were rinsed with PBS once quickly.
6. 50 μL of freshly prepared lysis solution were added into each well, with shaking at room temperature for 10 min.
7. After confirming that all cells get detached from wells, the lysis solution together with the cell debris was transferred to 1.5 ml tubes.
8. The tubes were vortexed several times to thoroughly mix the lysis solution and cells, and then, and then the mixture was centrifuged at 12,000 g for 10 min at 4° C.;
9. The desired number of ELISA-One microplate strips was determined. Unused strips were removed from frame and returned to storage pouch and seal. Wells for use in the assay were rinsed with 200 μL ddH2O to remove preservatives prior to use.
10. 50 μL of antibody mixture solution was added into each well. (Antibody mixture solution was prepared by mixing capture antibody reagent and detection antibody reagent equally, avoid vortexing)
11. 25 μL of lysate was added into each well of the ELISA-One microplate. The microplate was covered with adhesive seal and incubated for 1 hour at room temperature on a microplate shaker.
12. Each well was washed with 150 μL 1× wash buffer 3 times. After final wash, any remaining wash buffer was removed from wells. If necessary, leave microplate in 1× Wash Buffer for up to 30 min, until substrate mixture solution has been prepared.
13. The substrate mixture solution should be prepared when used, 100 μL of substrate mixture solution was added into each well, and then the microplate was sealed with tin foil and incubated at room temperature for 10 minutes on a microplate shaker.
14. 10 μL of stop solution was added into each well, and then mixed slightly (5-10 seconds) on a microplate shaker.
15. Corresponding ELISA-One filter set was installed to read the fluorescence signal intensity.

mTOR = biological target: T2, mTOR (Homo sapiens, UniProt P42345); assay: In vitro enzyme activity assay, mTOR kinase (32P-ATP, P81 filter-binding); assay type: biochemical; conditions: 4EBPI substrate, 10 μM ATP; read-out: mTOR enzyme activity_IC50
T2 construct: recombinant human mTOR fragment (amino acid 1360-2549, molecular weight=163.9 kDa); GST-tag (N); host or cells: insect cells
T2 sequence (P42345 1360-2549): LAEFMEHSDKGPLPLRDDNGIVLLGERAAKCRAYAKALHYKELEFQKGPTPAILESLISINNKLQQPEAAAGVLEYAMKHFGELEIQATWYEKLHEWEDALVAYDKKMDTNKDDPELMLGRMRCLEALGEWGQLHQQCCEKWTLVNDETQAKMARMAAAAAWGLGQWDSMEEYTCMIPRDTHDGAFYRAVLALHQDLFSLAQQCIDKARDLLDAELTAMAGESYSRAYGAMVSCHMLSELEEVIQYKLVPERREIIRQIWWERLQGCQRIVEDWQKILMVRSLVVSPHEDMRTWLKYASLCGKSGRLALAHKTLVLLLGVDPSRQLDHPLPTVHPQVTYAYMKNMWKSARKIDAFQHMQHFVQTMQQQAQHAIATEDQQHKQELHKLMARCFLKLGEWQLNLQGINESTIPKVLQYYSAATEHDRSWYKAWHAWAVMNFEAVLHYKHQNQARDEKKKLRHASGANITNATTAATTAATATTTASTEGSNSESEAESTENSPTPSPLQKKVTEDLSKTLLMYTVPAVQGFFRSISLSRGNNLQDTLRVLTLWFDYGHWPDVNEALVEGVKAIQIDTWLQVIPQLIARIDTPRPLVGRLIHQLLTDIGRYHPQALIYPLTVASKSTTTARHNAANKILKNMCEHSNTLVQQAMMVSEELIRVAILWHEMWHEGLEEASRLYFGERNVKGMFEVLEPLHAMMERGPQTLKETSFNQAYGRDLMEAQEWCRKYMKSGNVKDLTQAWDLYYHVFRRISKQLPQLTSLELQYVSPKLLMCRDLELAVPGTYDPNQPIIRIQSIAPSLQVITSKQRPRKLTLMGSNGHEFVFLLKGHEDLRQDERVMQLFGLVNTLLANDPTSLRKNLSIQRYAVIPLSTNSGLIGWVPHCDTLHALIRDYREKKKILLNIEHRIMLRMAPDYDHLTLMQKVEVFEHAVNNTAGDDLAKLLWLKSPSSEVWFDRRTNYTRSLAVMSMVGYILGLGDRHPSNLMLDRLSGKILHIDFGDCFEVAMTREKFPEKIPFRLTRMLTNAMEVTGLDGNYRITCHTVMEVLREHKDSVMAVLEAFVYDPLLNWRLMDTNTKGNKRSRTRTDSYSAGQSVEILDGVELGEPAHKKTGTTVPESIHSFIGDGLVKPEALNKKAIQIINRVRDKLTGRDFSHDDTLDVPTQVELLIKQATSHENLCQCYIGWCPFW
Procedure: mTOR kinase activities of the compounds in all the examples of the present invention were tested via the following method.
Reaction buffer: 20 mM Hepes (pH 7.5), 10 mM MgCl2, 2 mM MnCl2, 1 mM EGTA, 0.02% Brij35, 0.02 mg/mL BSA, 0.1 mM Na3VO4, 2 mM DTT, and 2% DMSO.
Enzyme for reaction: recombinant human mTOR fragment (amino acid 1360-2549, molecular weight=163.9 kDa) with a GST-tag at the N-terminus, which was expressed in insect cells.
Substrate for reaction: recombinant full-length human 4EBPI (molecular weight=13.6 kDa) with a His-tag at the N-terminus, which was expressed in bacteria.
Reaction conditions: […] 4EBPI and 10 μM ATP.
1. adding the reaction substrate and other reaction factors into the freshly prepared reaction buffer;
as §2
3. transferring the compound dissolved in 100% DMSO into the kinase reaction solution by using Acoustic technique (Echo550; nanoliter rang), and incubating at room temperature for 20 minutes;
4. adding an appropriate concentration of ^32P-ATP into the reaction system;
5. incubating at room temperature for 2 hours;
6. detecting the kinase activity by using P81 filter-binding method.

PI3K (p110α) [2] = biological target: T1, PI3K (p110α); assay: In vitro enzyme activity assay, PI3K (p110α) kinase, Method II (ADP-Glo assay); assay type: biochemical; set-up: purchased Millipore 14-602-K; conditions: read-out: PI3K (p110α) enzyme activity_IC50
Procedure: as §1
Dilution of the Compound:
The compound to be tested was diluted with a 3-fold concentration gradient, and 10 concentrations (from 10000 nM to 0.5 nM) were obtained in total.
50 nL of the compound was transferred to a reaction plate (PerkinElmer #6007299) and 3 μL of enzyme/substrate mixture (0.33 nM PI3Kalpha, Millipore #14-602-K/166.5 μM PIP2) was added. After 20 min incubation, 2 uL of ATP solution (100 uM) was added to initiate the reaction. After reacting for 2 hours at room temperature, 5 μL of ADP-Glo reagent was added to terminate the kinase reaction. Then the mixture was incubated at room temperature for 60 min to completely digest the remaining unreacted ATP, 10 uL of kinase detection reagent was added, and after 40 min incubation at room temperature, […] was readed on an Envision. PIP2, ATP, ADP-Glo and the kinase detection reagent were all from ADP-Glo kinase assay kit (Promega #V1792).
IC50 was calculated using standard 4-parameter fit method (Model205, XL-fit, iDBS).

Compound | pIC50 (PI3K (p110α) [1]) | pIC50 (MCF-7 cells) | pIC50 (mTOR) | pIC50 (PI3K (p110α) [2])
COc1ncc(-c2ccc3ncc(OCCN4CCNCC4)c(=O)n3c2)cc1NS(=O)(=O)c1sc(C)nc1C [Compound 3] | ≥ 9.00 | < 6.60 | < 6.70 | –
CNCCOc1cnc2ccc(-c3cnc(OC)c(NS(=O)(=O)c4sc(C)nc4C)c3)cn2c1=O [Compound 6] | ≥ 9.00 | – | < 6.70 | –
COc1ncc(-c2ccc3ncc(OCCN4CCOCC4)c(=O)n3c2)cc1NS(=O)(=O)c1ccccc1F [Compound 9] | ≥ 9.00 | 6.60 to 7.00 | < 6.70 | –
Cc1nc(C)c(S(=O)(=O)Nc2cc(-c3ccc4ncc(OCCN5CCOCC5)c(=O)n4c3)cnc2N)s1 [Compound 12] | ≥ 9.00 | < 6.60 | 6.70 to 7.30 | –
COc1ncc(-c2ccc3ncc(OCCN4CCOCC4)c(=O)n3c2)cc1NS(=O)(=O)c1ccc(F)cc1F [Compound 13] | ≥ 9.00 | – | < 6.70 | –
COc1ncc(-c2ccc3ncc(OC4CCNCC4)c(=O)n3c2)cc1NS(=O)(=O)c1ccc(F)cc1F [Compound 41, 2,4-Difluoro-N-(2-methoxy-5-(4-oxo-3-(piperidin-4-yloxy)-4H-pyrido[1,2-a]pyrimidin-7-yl)pyridin-3-yl)benzenesulfonamide] | 7.30 to 9.00 | – | < 6.70 | –
COc1ncc(-c2ccc3ncc(OC4CCNC4)c(=O)n3c2)cc1NS(=O)(=O)c1ccc(F)cc1F (stereo not drawn) [Compound 44] | ≥ 9.00 | – | < 6.70 | –
COc1ncc(-c2ccc3ncc(OCCN4CCNCC4)c(=O)n3c2)cc1NS(=O)(=O)c1ccc(F)cc1Cl [Compound 75] | – | < 6.60 | – | ≥ 9.00
COc1ncc(-c2ccc3ncc(OCC4CCNC4)c(=O)n3c2)cc1NS(=O)(=O)c1ccc(F)cc1Cl (stereo not drawn) [Compound 77] | – | < 6.60 | – | 7.30 to 9.00
COc1ncc(-c2ccc3ncc(OCC4CCCN4)c(=O)n3c2)cc1NS(=O)(=O)c1ccc(F)cc1Cl (stereo not drawn) [Compound 78] | – | < 6.60 | – | 7.30 to 9.00
COc1ncc(-c2ccc3ncc(OCCN4CCC(O)CC4)c(=O)n3c2)cc1NS(=O)(=O)c1ccc(F)cc1Cl [Compound 79] | – | 6.60 to 7.00 | – | ≥ 9.00
COc1ncc(-c2ccc3ncc(OCCNCCO)c(=O)n3c2)cc1NS(=O)(=O)c1ccc(F)cc1Cl [Compound 81] | – | < 6.60 | – | ≥ 9.00
COc1ncc(-c2ccc3ncc(OCCN4CCC(C)(O)CC4)c(=O)n3c2)cc1NS(=O)(=O)c1ccc(F)cc1Cl [Compound 82] | – | 6.60 to 7.00 | – | ≥ 9.00
COc1ncc(-c2ccc3ncc(OCCN4CCN(C(C)=O)CC4)c(=O)n3c2)cc1NS(=O)(=O)c1ccc(F)cc1Cl [Compound 90] | – | 7.00 to 7.30 | – | ≥ 9.00

Further lines, results first:

pIC50 (PI3K (p110α) [1]) | pIC50 (MCF-7 cells) | pIC50 (mTOR) | pIC50 (PI3K (p110α) [2]) | Compound
≥ 9.00 | ≥ 7.30 | 6.70 to 7.30 | – | COc1ncc(-c2ccc3ncc(OCCN4CCC(F)(F)CC4)c(=O)n3c2)cc1NS(=O)(=O)c1sc(C)nc1C [Compound 1, N-(5-(3-(2-(4,4-difluoro-1-piperidinyl)ethoxy)-4-oxo-pyrido[1,2-a]pyrimidin-7-yl]-2-methoxypyridin-3-yl]-2,4-dimethylthiazole-5-sulfonamide]
≥ 9.00 | ≥ 7.30 | 6.70 to 7.30 | – | COc1ncc(-c2ccc3ncc(OCCN4CCC(F)CC4)c(=O)n3c2)cc1NS(=O)(=O)c1sc(C)nc1C [Compound 2]
≥ 9.00 | ≥ 7.30 | < 6.70 | – | COc1ncc(-c2ccc3ncc(OCCN4CCOCC4)c(=O)n3c2)cc1NS(=O)(=O)c1ccc(C)cc1C [Compound 7, 2,4-Dimethyl-N-(2-methoxy-5-(3-(2-morpholinoethoxy)-4-oxo-4H-pyrido[1,2-a]pyrimidin-4-one-7-yl)pyridin-3-yl)benzenesulfonamide]
≥ 9.00 | 7.00 to 7.30 | < 6.70 | – | COc1ncc(-c2ccc3ncc(OCCN4CCOCC4)c(=O)n3c2)cc1NS(=O)(=O)c1ccc(F)cc1C [Compound 8]
≥ 9.00 | 7.00 to 7.30 | < 6.70 | – | COc1ncc(-c2ccc3ncc(OCCN4CCOCC4)c(=O)n3c2)cc1NS(=O)(=O)c1ccccc1Cl [Compound 10]
≥ 9.00 | ≥ 7.30 | < 6.70 | – | COc1ncc(-c2ccc3ncc(OCCN4CCOCC4)c(=O)n3c2)cc1NS(=O)(=O)c1ccc(F)cc1Cl [Compound 11]
≥ 9.00 | ≥ 7.30 | < 6.70 | – | COc1ncc(-c2ccc3ncc(OCCN4CCOCC4)c(=O)n3c2)cc1NS(=O)(=O)c1ccc(Cl)s1 [Compound 14]
– | ≥ 7.30 | < 6.70 | ≥ 9.00 | COc1ncc(-c2ccc3ncc(OCCN(C)C)c(=O)n3c2)cc1NS(=O)(=O)c1ccc(F)cc1Cl [Compound 25]
– | 7.00 to 7.30 | 6.70 to 7.30 | ≥ 9.00 | COc1ncc(-c2ccc3ncc(OCCN4CCCC4)c(=O)n3c2)cc1NS(=O)(=O)c1ccc(F)cc1Cl [Compound 27]
– | 7.00 to 7.30 | 6.70 to 7.30 | ≥ 9.00 | COc1ncc(-c2ccc3ncc(OCC4(N)CC4)c(=O)n3c2)cc1NS(=O)(=O)c1ccc(F)cc1Cl [Compound 32]
– | 7.00 to 7.30 | – | 7.30 to 9.00 | COc1ncc(-c2ccc3ncc(OC4CCN(C)C4)c(=O)n3c2)cc1NS(=O)(=O)c1ccc(F)cc1Cl (stereo not drawn) [Compound 85]
– | 7.00 to 7.30 | – | ≥ 9.00 | COc1ncc(-c2ccc3ncc(OCCN4CCOCC4C)c(=O)n3c2)cc1NS(=O)(=O)c1ccc(F)cc1Cl (stereo not drawn) [Compound 88]
– | ≥ 7.30 | – | ≥ 9.00 | COc1ncc(-c2ccc3ncc(OCCN4CCOC(C)C4)c(=O)n3c2)cc1NS(=O)(=O)c1ccc(F)cc1Cl (stereo not drawn) [Compound 89]
– | ≥ 7.30 | – | 7.30 to 9.00 | COCCN(CCOc1cnc2ccc(-c3cnc(OC)c(NS(=O)(=O)c4ccc(F)cc4Cl)c3)cn2c1=O)CC(F)(F)F [Compound 95]
